According to patent publication US10821115B2, “Compounds that inhibit Mcl-1 protein” (priority 2017, dated 2020):
Like-named read-outs stand apart in the source and are kept apart here.

Columns and labels:
[1] = molecular target: recombinant human Mcl-1 (residues 171-327) / Bim interaction (Homo sapiens (Human), UniProt Q07820); experiment: biochemical; format: binding; conditions: read-out: Mcl-1 HTRF IC50
[2] = tested on: human multiple myeloma cell line, OPM-2; experiment: Cell viability assay (OPM-2 10 FBS), CellTiter-Glo; format: cell-based
Procedure, shortened: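 Serially diluted test compounds are incubated 16 h with cells (3000/well) in RPMI 1640 supplemented with 10% FBS. Viability is then measured by luminescence and IC50 calculated by 4-parameter logistic fit.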

[3] = TR-FRET, Mcl-1(171-327) / biotin-Bim (51-76)
[4] = Homo sapiens, OPM-2, 16 h, read-out: OPM-2 10% FBS IC50 IP, OPM-2 cells, 10% FBS, 16 h, CellTiter-Glo
[5] = read-out: OPM-2 10% FBS IC50 IP, OPM-2 cells, 10% FBS, 16 h, CellTiter-Glo

Sequence of recombinant human Mcl-1 (residues 171-327) / Bim interaction (Q07820 171-327): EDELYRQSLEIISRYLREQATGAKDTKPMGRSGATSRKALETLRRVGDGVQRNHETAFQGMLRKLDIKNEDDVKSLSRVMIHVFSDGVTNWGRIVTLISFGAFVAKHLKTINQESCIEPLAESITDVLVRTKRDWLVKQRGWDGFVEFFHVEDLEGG

| Structure (SMILES) | IC50 [1, 3] [µM] | IC50 [2, 4] [µM] | IC50 [2, 5] [µM] | IC50 [1] [µM] |
| --- | --- | --- | --- | --- |
| C[C@@H]1[C@@H](C)CCC[C@](O)(CC(=O)Nc2ccncn2)[C@@H]2CC[C@H]2CN2C[C@@]3(CCCc4cc(Cl)ccc43)COc3ccc(cc32)C(=O)NS1(=O)=O [Example 100174, 2-((1S,3′R,6′R,7′S,11′S,12′R)-6-chloro-7′-hydroxy-11′,12′-dimethyl-13′,13′-dioxido-15′-oxo-3,4-dihydro-2H-spiro[naphthalene-1,22′-[20]oxa[13]thia[1,14]diazatetracyclo [14.7.2.0~3,6~.0~19,24~]pentacosa[16,18,24]trien]-7′-yl)-N-4-pyrimidinylacetamide] | 0.00202 | 1.91 | – | – |
| C[C@@H]1[C@@H](C)C/C=C/[C@](O)(CCO)[C@@H]2CC[C@H]2CN2C[C@@]3(CCCc4cc(Cl)ccc43)COc3ccc(cc32)C(=O)NS1(=O)=O [Example 100175, (1S,3′R,6′R,7′R,8′E,11′S,12′R)-6-chloro-7′-hydroxy-7′-(2-hydroxyethyl)-11′,12′-dimethyl-3,4-dihydro-2H,15′H-spiro[naphthalene-1,22′-[20]oxa[13]thia[1,14]diazatetracyclo [14.7.2.0~3,6~.0~19,24~]pentacosa[8,16,18,24]tetraen]-15′-one 13′,13′-dioxide] | 0.000149 | 0.452 | – | – |
| CO[C@@]1(CC(=O)N(C)C)CCC[C@H](C)[C@@H](C)S(=O)(=O)NC(=O)c2ccc3c(c2)N(C[C@@H]2CC[C@H]21)C[C@@]1(CCCc2cc(Cl)ccc21)CO3 [Example 100176, 2-((1S,3′R,6′R,7′R,11′S,12′R)-6-chloro-7′-methoxy-11′,12′-dimethyl-13′,13′-dioxido-15′-oxo-3,4-dihydro-2H-spiro[naphthalene-1,22′-[20]oxa[13]thia[1,14]diazatetracyclo [14.7.2.0~3,6~.0~19,24~]pentacosa[16,18,24]trien]-7′-yl)-N,N-dimethylacetamide] | 0.00048 | 0.603 | – | – |
| CO[C@@]1(CCCO)/C=C/C[C@H](C)[C@@H](C)S(=O)(=O)NC(=O)c2ccc3c(c2)N(C[C@@H]2CC[C@H]21)C[C@@]1(CCCc2cc(Cl)ccc21)CO3 [Example 100177, (1S,3′R,6′R,7′S,8′E,11′S,12′R)-6-chloro-7′-(3-hydroxypropyl)-7′-methoxy-11′,12′-dimethyl-3,4-dihydro-2H,15′H-spiro[naphthalene-1,22′-[20]oxa[13]thia[1,14]diazatetracyclo [14.7.2.0~3,6~.0~19,24~]pentacosa[8,16,18,24]tetraen]-15′-one 13′,13′-dioxide] | 0.000258 | 0.259 | – | – |
| CO[C@@]1(CCCO)/C=C/C[C@H](C)[C@@H](C)S(=O)(=O)NC(=O)c2ccc3c(c2)N(C[C@@H]2CC[C@H]21)C[C@@]1(CCCc2cc(Cl)ccc21)CO3 [Example 100178, (1S,3′R,6′R,7′S,8′E,11′S,12′R)-6-chloro-7′-(3-hydroxypropyl)-7′-methoxy-11′,12′-dimethyl-3,4-dihydro-2H,15′H-spiro[naphthalene-1,22′-[20]oxa[13]thia[1,14]diazatetracyclo [14.7.2.0~3,6~.0~19,24~]pentacosa[8,16,18,24]tetraen]-15′-one 13′,13′-dioxide] | 0.000432 | – | 0.237 | – |
| C[C@@H]1[C@@H](C)C/C=C/[C@](O)(c2ccccn2)[C@@H]2CC[C@H]2CN2C[C@@]3(CCCc4cc(Cl)ccc43)COc3ccc(cc32)C(=O)NS1(=O)=O [Example 100180, (1S,3′R,6′R,7′R,8′E,11′S,12′R)-6-chloro-7′-hydroxy-11′,12′-dimethyl-7′-(2-pyridinyl)-3,4-dihydro-2H,15′H-spiro[naphthalene-1,22′-[20]oxa[13]thia[1,14]diazatetracyclo [14.7.2.0~3,6~.0~19,24~]pentacosa[8,16,18,24]tetraen]-15′-one 13′,13′-dioxide] | 0.00492 | 4.42 | – | – |
| C[C@@H]1[C@@H](C)C/C=C/[C@@](C)(O)[C@@H]2CC[C@H]2CN2C[C@@]3(CCCc4cc(Cl)ccc43)COc3ccc(cc32)C(=O)NS1(=O)=O [Example 100182, (1S,3′R,6′R,7′R,8′E,11′S,12′R)-6-chloro-7′-hydroxy-7′,11′,12′-trimethyl-3,4-dihydro-2H,15′H-spiro[naphthalene-1,22′-[20]oxa[13]thia[1,14]diazatetracyclo [14.7.2.0~3,6~.0~19,24~]pentacosa[8,16,18,24]tetraen]-15′-one 13′,13′-dioxide] | – | 0.827 | – | 0.000863 |
| C[C@@H]1[C@@H](C)CCC[C@@](O)(c2cccnc2)[C@@H]2CC[C@H]2CN2C[C@@]3(CCCc4cc(Cl)ccc43)COc3ccc(cc32)C(=O)NS1(=O)=O [Example 100185, (1S,3′R,6′R,7′S,11′S,12′R)-6-chloro-7′-hydroxy-11′,12′-dimethyl-7′-(3-pyridinyl)-3,4-dihydro-2H,15′H-spiro[naphthalene-1,22′-[20]oxa[13]thia[1,14]diazatetracyclo [14.7.2.0~3,6~.0~19,24~]pentacosa[16,18,24]trien]-15′-one 13′,13′-dioxide] | – | 5.13 | – | 0.00888 |
| C[C@@H]1[C@@H](C)C/C=C/[C@](O)(c2nccn2C)[C@@H]2CC[C@H]2CN2C[C@@]3(CCCc4cc(Cl)ccc43)COc3ccc(cc32)C(=O)NS1(=O)=O [Example 100186, (1S,3′R,6′R,7′R,8′E,11′S,12′R)-6-chloro-7′-hydroxy-11′,12′-dimethyl-7′-(1-methyl-1H-imidazol-2-yl)-3,4-dihydro-2H,15′H-spiro[naphthalene-1,22′-[20]oxa[13]thia[1,14]diazatetracyclo [14.7.2.0~3,6~.0~19,24~]pentacosa[8,16,18,24]tetraen]-15′-one 13′,13′-dioxide] | 0.000377 | 0.312 | – | – |
| C[C@@H]1[C@@H](C)C/C=C/[C@](O)(Cc2ccnc(C#N)c2)[C@@H]2CC[C@H]2CN2C[C@@]3(CCCc4cc(Cl)ccc43)COc3ccc(cc32)C(=O)NS1(=O)=O [Example 100187, 4-(((1S,3′R,6′R,7′R,8′E,11′S,12′R)-6-chloro-7′-hydroxy-11′,12′-dimethyl-13′,13′-dioxido-15′-oxo-3,4-dihydro-2H-spiro[naphthalene-1,22′-[20]oxa[13]thia[1,14]diazatetracyclo [14.7.2.0~3,6~.0~19,24~]pentacosa[8,16,18,24]tetraen]-7′-yl)methyl)-2-pyridinecarbonitrile] | 0.00276 | – | 3.11 | – |
| C[C@@H]1[C@@H](C)C/C=C/[C@](O)(Cc2ccnc(C#N)c2)[C@@H]2CC[C@H]2CN2C[C@@]3(CCCc4cc(Cl)ccc43)COc3ccc(cc32)C(=O)NS1(=O)=O [Example 100188, 4-(((1S,3′R,6′R,7′R,8′E,11′S,12′R)-6-chloro-7′-hydroxy-11′,12′-dimethyl-13′,13′-dioxido-15′-oxo-3,4-dihydro-2H-spiro[naphthalene-1,22′-[20]oxa[13]thia[1,14]diazatetracyclo [14.7.2.0~3,6~.0~19,24~]pentacosa[8,16,18,24]tetraen]-7′-yl)methyl)-2-pyridinecarbonitrile] | 0.000877 | – | 0.735 | – |
| COC[C@]1(OC)CCC[C@H](C)[C@@H](C)S(=O)(=O)NC(=O)c2ccc3c(c2)N(C[C@@H]2CC[C@H]21)C[C@@]1(CCCc2cc(Cl)ccc21)CO3 [Example 100189, (1S,3′R,6′R,7′S,11′S,12′R)-6-chloro-7′-methoxy-7′-(methoxymethyl)-11′,12′-dimethyl-3,4-dihydro-2H,15′H-spiro[naphthalene-1,22′-[20]oxa[13]thia[1,14]diazatetracyclo [14.7.2.0~3,6~.0~19,24~]pentacosa[16,18,24]trien]-15′-one 13′,13′-dioxide] | 0.00082 | 0.701 | – | – |
| CCOC[C@@]1(O)CCC[C@H](C)[C@@H](C)S(=O)(=O)NC(=O)c2ccc3c(c2)N(C[C@@H]2CC[C@H]21)C[C@@]1(CCCc2cc(Cl)ccc21)CO3 [Example 100190, (1S,3′R,6′R,7′R,11′S,12′R)-6-chloro-7′-(ethoxymethyl)-7′-hydroxy-11′,12′-dimethyl-3,4-dihydro-2H,15′H-spiro[naphthalene-1,22′-[20]oxa[13]thia[1,14]diazatetracyclo [14.7.2.0~3,6~.0~19,24~]pentacosa[16,18,24]trien]-15′-one 13′,13′-dioxide] | 0.00479 | 2.48 | – | – |
| COc1cccc([C@]2(O)/C=C/C[C@H](C)[C@@H](C)S(=O)(=O)NC(=O)c3ccc4c(c3)N(C[C@@H]3CC[C@H]32)C[C@@]2(CCCc3cc(Cl)ccc32)CO4)n1 [Example 100191, (1S,3′R,6′R,7′S,8′E,11′S,12′R)-6-chloro-7′-hydroxy-7′-(6-methoxy-2-pyridinyl)-11′,12′-dimethyl-3,4-dihydro-2H,15′H-spiro[naphthalene-1,22′-[20]oxa[13]thia[1,14]diazatetracyclo [14.7.2.0~3,6~.0~19,24~]pentacosa[8,16,18,24]tetraen]-15′-one 13′,13′-dioxide] | 0.0016 | 0.557 | – | – |
| COCCOC[C@]1(O)CCC[C@H](C)[C@@H](C)S(=O)(=O)NC(=O)c2ccc3c(c2)N(C[C@@H]2CC[C@H]21)C[C@@]1(CCCc2cc(Cl)ccc21)CO3 [Example 100192, (1S,3′R,6′R,7′S,11′S,12′R)-6-chloro-7′-hydroxy-7′-((2-methoxyethoxy)methyl)-11′,12′-dimethyl-3,4-dihydro-2H,15′H-spiro[naphthalene-1,22′-[20]oxa[13]thia[1,14]diazatetracyclo [14.7.2.0~3,6~.0~19,24~]pentacosa[16,18,24]trien]-15′-one 13′,13′-dioxide] | 0.000192 | 0.149 | – | – |
